Laboratory results from patent publication US20140073801A1, “PYRROLIDINE DERIVATIVES AS SELECTIVE GLYCOSIDASE INHIBITORS AND USES THEREOF” (Summit Corporation Plc, priority 2011, published 2014).

Tests used:
[1] = test system: O-GlcNAc modified proteins in PC-12 cells or SH-SY5Y cells; test: Western blot analyses of O-GlcNAc modified proteins in cells; type: cell-based; conditions: western blot, cells dosed 4 hours at 37° C.; cell line not given
Method: PC-12 cells or SH-SY5Y cells were dosed with the test compound or vehicle control at 37° C. for 4 hours. Once the incubation was completed the media was removed and cells were lysed. Extracted protein was then used for Western blot analysis using standard molecular biology techniques. The resulting membrane was probed with antibodies specific for tau phosphorylation sites (pSer396, pSer422, pThr231, pSer262) or with antibodies specific for O-GlcNAcylation sites (RL-2 or CTD110.6). The primary antibodies were visualised using appropriate secondary conjugated with the fluorophores Alexa 532 or Alexa 488. Actin was visualised using a FITC conjugated primary antibody. Relative quantification was measured in relation to the actin signal using Image lab software (BRL). Marked increases in O-GlcNAcylated proteins within the cells were observed as compared to controls when cells were dosed with test compound.

[2] = target: T1, human β-hexosaminidase [human placenta] (HexA/B); test: Determination of IC50 values for inhibition of human β-hexosaminidase; type: biochemical; conditions: human β-hexosaminidase, human placenta; room temperature, thirty minutes
T1 construct: other: human β-hexosaminidase, human placenta; room temperature, thirty minutes
Method: (§1) Inhibitors identified from the screen described in Example 1 were evaluated for IC50 against human β-hexosaminidase [human placenta, Sigma-Aldrich] using a range of inhibitor concentrations from 300 μM to 0.003 μM or 100 μM to 0.001 μM and the following reaction conditions:
(§2) Reactions were carried out at room temperature for thirty minutes and then quenched through the addition of 150 μl 0.5M Na2CO3. Fluorescence readings were taken at excitation wavelength 360 nm and emission wavelength 450 nm. IC50 values were calculated using XLFit 4. The selectivity ratio for inhibition of human O-GlcNAcase over human β-hexosaminidase is defined here as:
(§3) IC50(human β-hexosaminidase)/IC50(Human OGA)

[3] = test system: human β-hexosaminidase [human placenta] (HexA/B); test: as above; type: biochemical; conditions: ratio
Method: as §1, §2, §3

human OGA [4] = target: T2, human OGA (Homo sapiens, UniProt O60502); test: Determination of IC50 values for inhibition of human OGA; type: biochemical
T2 construct: made in house
T2 sequence (O60502 1-916): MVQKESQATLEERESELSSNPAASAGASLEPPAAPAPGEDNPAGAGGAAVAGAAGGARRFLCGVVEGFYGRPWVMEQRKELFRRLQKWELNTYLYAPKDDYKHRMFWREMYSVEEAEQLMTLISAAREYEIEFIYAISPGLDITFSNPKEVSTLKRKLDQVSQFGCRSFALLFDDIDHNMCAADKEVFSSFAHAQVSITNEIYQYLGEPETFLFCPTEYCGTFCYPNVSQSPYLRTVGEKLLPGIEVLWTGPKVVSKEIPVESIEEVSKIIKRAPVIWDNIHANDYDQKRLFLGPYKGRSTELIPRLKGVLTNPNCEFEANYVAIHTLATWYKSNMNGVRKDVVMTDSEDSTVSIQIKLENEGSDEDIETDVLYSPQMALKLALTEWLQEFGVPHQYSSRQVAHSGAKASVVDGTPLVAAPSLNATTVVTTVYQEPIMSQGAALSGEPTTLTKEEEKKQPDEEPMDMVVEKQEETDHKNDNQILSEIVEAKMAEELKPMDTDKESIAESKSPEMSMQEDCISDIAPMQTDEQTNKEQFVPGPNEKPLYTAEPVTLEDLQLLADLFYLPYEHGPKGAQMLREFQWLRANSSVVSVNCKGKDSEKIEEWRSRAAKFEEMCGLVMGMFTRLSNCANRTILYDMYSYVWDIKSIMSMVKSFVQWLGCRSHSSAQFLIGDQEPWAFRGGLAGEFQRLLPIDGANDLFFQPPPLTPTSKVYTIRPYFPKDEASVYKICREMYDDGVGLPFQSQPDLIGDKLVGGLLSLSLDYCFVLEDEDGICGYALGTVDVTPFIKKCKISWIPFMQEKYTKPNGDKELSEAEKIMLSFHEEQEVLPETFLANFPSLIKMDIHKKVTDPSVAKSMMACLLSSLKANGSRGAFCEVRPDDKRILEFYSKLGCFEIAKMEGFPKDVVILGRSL
Method: Inhibitors identified from the screen described in Example 1 were evaluated for IC50 using a procedure adapted from Biochem. J. 2009, 420, 221-227. IC50 determination was carried out using a range of inhibitor concentrations from 300 μM to 0.003 μM or 100 μM to 0.001 μM. IC50 values were calculated using XLFit 4.

human OGA [5] = target: T2, human OGA; test: Determination of Ki values for inhibition of human OGA (4MU-GlcNAc substrate); type: biochemical; conditions: 2 nM human OGA, McIlvaine buffer pH 7.4, one hour
Method: Enzymatic reactions were carried out in McIlvaine buffer (0.2M Na2PO4, 0.1M citric acid; pH 7.4) using 2 nM human OGA and 4MU-GlcNAc as substrate in the presence of inhibitor. For the Ki of AXX inhibitor concentrations were 0, 20, 40, 80, 160 and 320 nM [for the Ki determination of other compounds either the same concentrations or similar concentrations were used] and 4MU-GlcNAc concentrations were 50, 100, 200, 400, 800, 1600, and 3200 μM. Reactions were left for one hour. […] Modes of inhibition were determined by Lineweaver-Burke analysis and Ki values were determined using GraphPad 5 Prism non-linear regression analysis.

| Compound | EC50 [1] [nM] | IC50 [2] [nM] | Selectivity: IC50(human β-hexosaminidase)/IC50(Human OGA) [3] | IC50 (human OGA [4]) [nM] | Ki (human OGA [5]) [nM] |
| --- | --- | --- | --- | --- | --- |
| CCCCCCN1[C@H](CO)[C@@H](O)[C@H](O)[C@H]1CC(=O)NCCC [Compound A055, 2-((2R,3R,4R,5R)-1-hexyl-3,4-dihydroxy-5-(hydroxymethyl)pyrrolidin-2-yl)-N-propylacetamide] | 3720 | > 300000 | >2529 | 119 |  |
| CCNC(=O)C[C@@H]1[C@@H](O)[C@H](O)[C@@H](CO)N1CCC(c1ccccc1)c1ccccc1 [Compound A068, 2-((2R,3R,4R,5R)-1-(3,3-diphenylpropyl)-3,4-dihydroxy-5-(hydroxymethyl)pyrrolidin-2-yl)-N-ethylacetamide] |  | 242000 | >65405 | 3.7 | 64 |
| CNC(=O)C[C@H]1N[C@H](CO)[C@@H](O)[C@H]1O [Compound A007, 2-((2R,3S,4R,5R)-3,4-dihydroxy-5-(hydroxymethyl)pyrrolidin-2-yl)-N-methylacetamide] | 4000 | > 300000 | >3000 | 102 |  |
| CCNC(=O)C[C@H]1N[C@H](CO)[C@@H](O)[C@@H]1O [Compound A050, 2-((2R,3R,4R,5R)-3,4-dihydroxy-5-(hydroxymethyl)pyrrolidin-2-yl)-N-ethylacetamide] | 2720 | > 300000 | >728 | 412 |  |
| CCCNC(=O)C[C@H]1N[C@H](CO)[C@@H](O)[C@@H]1O [Compound A052, 2-((2R,3R,4R,5R)-3,4-dihydroxy-5-(hydroxymethyl)pyrrolidin-2-yl)-N-propylacetamide] | 1070 | > 300000 | >2654 | 113 |  |
| CNC(=O)C[C@@H]1[C@H](O)[C@H](O)[C@@H](CO)N1CCCC(C)C [Compound A018, 2-((2R,3S,4R,5R)-3,4-dihydroxy-5-(hydroxymethyl)-1-(4-methylpentyl)pyrrolidin-2-yl)-N-methylacetamide] | 931 | 69000 | 5000 | 14 |  |
| CCCCCCN1[C@H](CO)[C@@H](O)[C@H](O)[C@H]1CC(=O)NCC [Compound A053, N-ethyl-2-((2R,3R,4R,5R)-1-hexyl-3,4-dihydroxy-5-(hydroxymethyl)pyrrolidin-2-yl)acetamide] | 1410 | > 300000 | >4769 | 62.9 |  |
| CC(=O)NC[C@H]1N[C@H](CO)[C@@H](O)[C@H]1O [Compound A033, N-(((2R,3S,4R,5R)-3,4-dihydroxy-5-(hydroxymethyl)pyrrolidin-2-yl)methyl)acetamide] |  | > 300000 | >178.57 | 1680 |  |
| CCCCCCN1[C@H](CO)[C@@H](O)[C@@H](O)[C@@H]1CC(=O)NC [Compound A034, 2-((2S,3S,4R,5R)-1-hexyl-3,4-dihydroxy-5-(hydroxymethyl)pyrrolidin-2-yl)-N-methylacetamide] |  | > 300000 | >4.41 | 68000 |  |
| CCCCCCCCCN1[C@H](CC(=O)NCCC)[C@H](O)[C@H](O)[C@H]1CO [Compound A008, 2-((2R,3S,4R,5R)-3,4-dihydroxy-5-(hydroxymethyl)-1-nonylpyrrolidin-2-yl)-N-propylacetamide] |  | > 300000 | >25000 | 12 | 55 |
| CCN1[C@H](CC(=O)NC)[C@H](O)[C@H](O)[C@H]1CO [Compound A019, 2-((2R,3S,4R,5R)-1-ethyl-3,4-dihydroxy-5-(hydroxymethyl)pyrrolidin-2-yl)-N-methylacetamide] | 1900 | > 300000 | >4366 | 69 |  |
| CNC(=O)[C@H]1N[C@@H](CO)[C@@H](O)[C@@H]1O [Compound A042, (2S,3R,4R,5S)-3,4-dihydroxy-5-(hydroxymethyl)-N-methylpyrrolidine-2-carboxamide] |  | 2500 | 0.89 | 2800 |  |

Results, then the compound that gave them:

| EC50 [1] [nM] | IC50 [2] [nM] | Selectivity: IC50(human β-hexosaminidase)/IC50(Human OGA) [3] | IC50 (human OGA [4]) [nM] | Ki (human OGA [5]) [nM] | Compound |
| --- | --- | --- | --- | --- | --- |
| 1010 | > 300000 | >8333 | 36 |  | CCNC(=O)C[C@@H]1[C@@H](O)[C@H](O)[C@@H](CO)N1CCCc1ccc(Cl)cc1 [Compound A063, 2-((2R,3R,4R,5R)-1-(3-(4-chlorophenyl)propyl)-3,4-dihydroxy-5-(hydroxymethyl)pyrrolidin-2-yl)-N-ethylacetamide] |
| 80 | 11000 | >3666 | < 3 |  | CN(C)c1ccc(S(=O)(=O)NCCCCCCN2[C@H](CC(N)=O)[C@H](O)[C@H](O)[C@H]2CO)c2ccccc12 [Compound A015, 2-((2R,3S,4R,5R)-1-(6-(4-(dimethylamino)naphthalene-1-sulfonamido)hexyl)-3,4-dihydroxy-5-(hydroxymethyl)pyrrolidin-2-yl)acetamide] |
| 1540 | 33000 | 3666 | 9 |  | CNC(=O)C[C@@H]1[C@H](O)[C@H](O)[C@@H](CO)N1CCc1ccccc1 [Compound A010, 2-((2R,3S,4R,5R)-3,4-dihydroxy-5-(hydroxymethyl)-1-phenethylpyrrolidin-2-yl)-N-methylacetamide] |
|  | 31 | 0.14 | 228 |  | CNC(=O)C[C@@H]1[C@@H](O)[C@H](O)[C@H](CO)N1CCCc1ccccc1 [Compound A058, 2-((2R,3R,4R,5S)-3,4-dihydroxy-5-(hydroxymethyl)-1-(3-phenylpropyl)pyrrolidin-2-yl)-N-methylacetamide] |
| 127 | 10100 | >3366 | < 3 |  | CNC(=O)C[C@@H]1[C@H](O)[C@H](O)[C@@H](CO)N1CCCCCNS(=O)(=O)c1ccc(C)cc1 [Compound A064, 2-((2R,3S,4R,5R)-3,4-dihydroxy-5-(hydroxymethyl)-1-(5-(4-methylphenylsulfonamido)pentyl)pyrrolidin-2-yl)-N-methylacetamide] |
|  | > 300000 | >42857 | 7 |  | CCNC(=O)C[C@@H]1[C@@H](O)[C@H](O)[C@@H](CO)N1CCCc1ccc(Sc2ccccc2)cc1 [Compound A071, 2-((2R,3R,4R,5R)-3,4-dihydroxy-5-(hydroxymethyl)-1-(3-(4-(phenylthio)phenyl)propyl)pyrrolidin-2-yl)-N-ethylacetamide] |
